According to patent US11053243B2 (Merck Sharp & Dohme Corp., priority 2009, dated 2021):

Test system: HCV genotype 1b replicon
Experiment: HCV replicon assay, genotype 1b
Type: cell-based, hepatitis C virus
Conditions: Hepatitis C virus; genotype 1b replicon cells, 24 to 72 hours incubation, luciferase activity
Description: The HCV replicons and NS5A inhibitory activity of the present compounds may be tested using assays known in the art. HCV inhibitors, such as those described in the Examples herein have activities in genotype 1b, 2a and 1a replicon assays of from about 1 pM to about 1 μM. The assay is performed by incubating a replicon harboring cell-line in the presence of inhibitor for a set period of time and measuring the effect of the inhibitor on HCV replicon replication either directly by quantifying replicon RNA level, or indirectly by measuring enzymatic activity of a co-encoded reporter enzyme such as luciferase or β-lactamase. By performing a series of such measurements at different inhibitor concentrations, the effective inhibitory concentration of the inhibitor (EC50 or EC90) is determined. See Jan M. Vrolijk et al., A replicons-based bioassay for the measurement of interferons in patients with chronic hepatitis C, 110 J. VIROLOGICAL METHODS 201 (2003). Such assays may also be run in an automated format for high through-put screening. See Paul Zuck et al., A cell-based β-lactamase reporter gene assay for the identification of inhibitors of hepatitis C virus replication, 334 ANALYTICAL BIOCHEMISTRY 344 (2004).
Measurement of inhibition by compounds was performed using the HCV replicon system. Several different replicons encoding different HCV genotypes or mutations were used. In addition, potency measurements were made using different formats of the replicon assay, including different ways of measurements and different plating formats. See Jan M. Vrolijk et al., A replicons-based bioassay for the measurement of interferons in patients with chronic hepatitis C, 110 J. VIROLOGICAL METHODS 201 (2003); Steven S. Carroll et al., Inhibition of Hepatitis C Virus RNA Replication by 2′-Modified Nucleoside Analogs, 278(14) J. BIOLOGICAL CHEMISTRY 11979 (2003). However, the underlying principles are common to all of these determinations, and are outlined below.
Stable neomycin phosphotransferase encoding replicon-harboring cell lines were used, so all cell lines were maintained under G418 selection prior to the assay. In some cases, the cell lines encoded a luciferase:Neor fusion and could be assayed either directly by determination of RNA copy number, or indirectly through measurement of the luciferase activity.
To initiate an assay, replicon cells were plated in the presence of a dilution series of test compound in the absence of G418. Typically, the assays were performed in a 96-well plate format for manual operation, or a 384-well plate in an automated assay. Replicon cells and compound were incubated for 24 to 72 hours. At the end of the assay, cells are washed free of media and compound and then lysed. Luciferase activity was measured using a conventional luciferase assay. EC50 determinations were calculated as a percent of a DMSO control by fitting the data to a four parameter fit function.
The activity table below provides representative data illustrating observed activity against genotype 1b.

SMILES | EC50 [nM]
COC(=O)N[C@H](C(=O)N1CCC[C@H]1C(=O)Nc1ccc2[nH]c(-c3ccc(-c4cnc([C@@H]5CCCN5C(=O)[C@@H](NC(=O)OC)C(C)C)[nH]4)cc3)cc2c1)C(C)C [Example 116, N-(methoxycarbonyl)-L-valyl-N-{2-[4-(2-{(2S)-1-[N-(methoxycarbonyl)-L-valyl]pyrrolidin-2-yl}-1H-imidazol-5-yl)phenyl]-1H-indol-5-yl}-L-prolinamide] | 0.065
CN(C)[C@@H](C(=O)N1CCC[C@H]1C(=O)Nc1ccc2c(c1)CCc1c-2[nH]c2ccc(NC(=O)[C@@H]3CCCN3C(=O)[C@@H](c3ccccc3)N(C)C)cc12)c1ccccc1 [Example 94, (2S,2′S)-N,N′-6,11-dihydro-5H-benzo[a]carbazole-3,8-diylbis{1-[(2R)-2-(dimethylamino)-2-phenylacetyl]pyrrolidine-2-carboxamide}] | 0.006
CC(C)(C)OC(=O)N[C@@H](C(=O)N1CCC[C@H]1C(=O)Nc1ccc2[nH]c(-c3ccc(N4CCCC4=O)cc3)c(F)c2c1)c1ccccc1 [Example 138, tert-butyl {(1R)-2-[(2S)-2-({3-fluoro-2-[4-(2-oxopyrrolidin-1-yl)phenyl]-1H-indol-5-yl}carbamoyl)pyrrolidin-1-yl]-2-oxo-1-phenylethyl}carbamate] | 8.5
CN(C)[C@@H](C(=O)N1CCC[C@H]1C(=O)Nc1ccc2c(c1)CCCc1c-2[nH]c2ccc(NC(=O)[C@@H]3CCCN3C(=O)[C@@H](c3ccccc3)N(C)C)cc12)c1ccccc1 [Example 95, (2S,2′S)-N,N′-5,6,7,12-tetrahydrobenzo[6,7]cyclohepta[1,2-b]indole-3,9-diylbis{1-[(2R)-2-(dimethylamino)-2-phenylacetyl]pyrrolidine-2-carboxamide}] | 0.01
COC(=O)N[C@@H](C(=O)N1CCC[C@H]1c1ncc(-c2ccc(-c3nc4cc(-c5cnc([C@@H]6CCCN6C(=O)[C@H](NC(=O)OC)c6ccccc6)[nH]5)ccc4o3)cc2)[nH]1)c1ccccc1 [Example 213, Methyl {(1R)-2-[(2S)-2-{5-[4-(5-{2-[(2S)-1-{(2R)-2-[(methoxycarbonyl)amino]-2-phenylacetyl}pyrrolidin-2-yl]-1H-imidazol-5-yl}-1,3-benzoxazol-2-yl)phenyl]-1H-imidazol-2-yl}pyrrolidin-1-yl]-2-oxo-1-phenylethyl}carbamate] | 0.009
CC(=O)Nc1ccc(-c2[nH]c3ccc(NC(=O)[C@@H]4CCCN4C(=O)[C@@H](NC(=O)OC(C)(C)C)c4ccccc4)cc3c2Cl)cc1 [Example 131, tert-butyl {(1S)-2-[(2S)-2-({2-[4-(acetylamino)phenyl]-3-chloro-1H-indol-5-yl}carbamoyl)pyrrolidin-1-yl]-2-oxo-1-phenylethyl}carbamate] | 17
O=C(Nc1ccc2[nH]c(-c3cc4cc(NC(=O)[C@@H]5CCCN5C(=O)Cc5ccccc5)ccc4[nH]3)cc2c1)[C@@H]1CCCN1C(=O)Cc1ccccc1 [Example 39, (2S,2′S)—N,N′,1H,1′H-2,2′-biindole-5,5′-diylbis[1-(phenylacetyl)pyrrolidine-2-carboxamide]] | 0.24
CCN(CC)[C@@H](C(=O)N1CCC[C@H]1C(=O)Nc1ccc2oc(-c3ccc(NC(C)=O)cc3)cc2c1)c1ccccc1 [Example 30] | 26
CC(C)(C)OC(=O)N[C@@H](C(=O)N1CCCC1C(=O)Nc1ccc2[nH]c(-c3cc4cc(NC(=O)[C@@H]5CCCN5C(=O)[C@H](NC(=O)OC(C)(C)C)c5ccccc5)ccc4[nH]3)cc2c1)c1ccccc1 (some centres unmarked) [Example 40] | 0.026
CC(=O)N1CCC[C@H]1c1ncc(-c2ccc(-c3cc4cc(NC(=O)[C@@H]5CCCN5C(=O)[C@H](NC(=O)OC(C)(C)C)c5ccccc5)ccc4[nH]3)cc2)[nH]1 [Example 105, tert-butyl{(1R)-2-[(2S)-2-{[2-(4-{2-[(2S)-1-acetylpyrrolidin-2-yl]-1H-imidazol-5-yl}phenyl)-1H-indol-5-yl]carbamoyl}pyrrolidin-1-yl]-2-oxo-1-phenylethyl}carbamate] | 0.08
CC(C)(C)OC(=O)N[C@@H](C(=O)N1CCC[C@H]1C(=O)Nc1ccc2[nH]c(-c3ccc(-c4cnc([C@@H]5CCCN5C(=O)OCc5ccccc5)[nH]4)cc3)cc2c1)c1ccccc1 [Example 100, benzyl (2S)-2-[5-(4-{5-[(1-{(2R)-2-[(tert-butoxycarbonyl)amino]-2-phenylacetyl}-L-prolyl)amino]-1H-indol-2-yl}phenyl)-1H-imidazol-2-yl]pyrrolidine-1-carboxylate] | 0.031
O=C(Nc1ccc(-c2[nH]c3ccc(NC(=O)[C@@H]4CCCN4C(=O)Cc4ccccc4)cc3c2F)cc1)[C@@H]1CCCN1C(=O)Cc1ccccc1 [Example 129, (2S)-N-{4-[3-fluoro-5-({[(2S)-1-(phenylacetyl)pyrrolidin-2-yl]carbonyl}amino)-1H-indol-2-yl]phenyl}-1-(phenylacetyl) pyrrolidine-2-carboxamide] | 0.7
O=C(Nc1ccc(-c2cc3cc(NC(=O)[C@@H]4CCCN4C(=O)[C@@H](c4ccccc4)N4CCCC4)ccc3[nH]2)cc1)[C@@H]1CCCN1C(=O)[C@@H](c1ccccc1)N1CCCC1 [Example 45, (2S)-1-[(2R)-2-phenyl-2-(pyrrolidin-1-yl)acetyl]-N-(4-{5-[({(2S)-1-[(2R)-2-phenyl-2-(pyrrolidin-1-yl)acetyl]pyrrolidin-2-yl}carbonyl)amino]-1H-indol-2-yl}phenyl) pyrrolidine-2-carboxamide] | 0.02
CC(C)(C)OC(=O)N[C@@H](C(=O)N1CCC[C@H]1C(=O)Nc1ccc2[nH]c(-c3ccc(NC(=O)[C@@H]4CCCN4C(=O)Cc4ccccc4)cc3)cc2c1)c1ccccc1 [Example 41] | 0.05
COC(=O)N[C@H](C(=O)N1CCC[C@H]1c1ncc(-c2ccc(-c3cc4cc(-c5cnc([C@@H]6CCCN6C(=O)[C@@H](NC(=O)OC)C(C)C)[nH]5)ccc4o3)cc2)[nH]1)C(C)C [Example 192, Methyl {(2S)-1-[(2S)-2-{5-[4-(5-{2-[(2S)-1-{(2S)-2-[(methoxy-carbonyl)amino]-3-methylbutanoyl}pyrrolidin-2-yl]-1H-imidazol-5-yl}-1-benzofuran-2-yl)phenyl]-1H-imidazol-2-yl}pyrrolidin-1-yl]-3-methyl-1-oxobutan-2-yl}carbamate] | 0.002
COC(=O)N[C@H](C(=O)N1CCC[C@H]1c1ncc(-c2ccc3c(c2)OCn2c-3cc3cc(-c4cnc([C@@H]5CCCN5C(=O)[C@@H](NC(=O)OC)C(C)C)[nH]4)ccc32)[nH]1)C(C)C [Example 189a, methyl [(2S)-1-{(2S)-2-[5-(10-{2-[(2S)-1-{(2S)-2-[(methoxycarbonyl)amino]-3-methylbutanoyl}pyrrolidin-2-yl]-1H-imidazol-5-yl}indolo[1,2-c] [1,3]benzoxazin-3-yl)-1H-imidazol-2-yl]pyrrolidin-1-yl}-3-methyl-1-oxobutan-2-yl]carbamate] | 0.15
CC(=O)NCC#Cc1cc2cc(NC(=O)[C@@H]3CCCN3C(=O)[C@H](NC(=O)OC(C)(C)C)c3ccccc3)ccc2[nH]1 [Example 178, tert-butyl {(1R)-2-[(2S)-2-({2-[3-(acetylamino)prop-1-yn-1-yl]-1H-indol-5-yl}carbamoyl)pyrrolidin-1-yl]-2-oxo-1-phenylethyl}carbamate] | 317
